Experimental data published in US20260355212A1 (priority 2022, published 2026).
Where two headings read alike, the source gives them in different places.

What was measured:
MERS Mpro = MERS Mpro (Middle East respiratory syndrome-related coronavirus, UniProt K9N7C7); assay: biochemical; set-up: species or system MERS-CoV
SARS-CoV-1 Mpro = SARS-CoV-1 Mpro (Severe acute respiratory syndrome coronavirus, UniProt P0C6X7); assay: biochemical
SARS-CoV-2 Mpro = SARS-CoV-2 Mpro (Severe acute respiratory syndrome coronavirus 2, UniProt P0DTD1); assay: SARS-CoV-2 Mpro enzymatic inhibition assay (fluorescence); format: biochemical
How it was run: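 Recombinant Mpro expressed in E. coli was preincubated 30 min at room temperature with 10-point, 3-fold serially diluted compound in duplicate. Fluorogenic substrate was then added and incubated 60 min at 30° C, and fluorescence read at Ex/Em 340/490 nm. IC50 came from a four-parameter fit of % inhibition.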

HCoV-HKU1 Mpro = HCoV-HKU1 Mpro (Human coronavirus HKU1, UniProt P0C6X2); assay: HCoV-HKU1 Mpro enzymatic inhibition assay (fluorescence); format: biochemical
Chain of HCoV-HKU1 Mpro (P0C6X2 3335-3637 limits assumed): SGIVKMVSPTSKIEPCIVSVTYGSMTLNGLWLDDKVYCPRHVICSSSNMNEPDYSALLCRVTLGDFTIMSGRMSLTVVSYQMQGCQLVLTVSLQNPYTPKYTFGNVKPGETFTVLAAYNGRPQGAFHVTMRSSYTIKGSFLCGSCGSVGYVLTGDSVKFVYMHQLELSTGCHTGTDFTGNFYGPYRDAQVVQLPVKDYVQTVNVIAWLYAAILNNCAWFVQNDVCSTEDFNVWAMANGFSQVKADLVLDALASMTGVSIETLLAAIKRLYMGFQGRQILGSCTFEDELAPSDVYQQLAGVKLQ
How it was run: (§1)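 Steps: compound dilution series (3-fold, 10 doses) dispensed; Mpro added and pre-incubated 30 min at room temperature; substrate added; plates incubated 60 min at 30 °C; fluorescence measured at Ex/Em=340 nm/490 nm.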

HCoV-NL63 Mpro = HCoV-NL63 Mpro (Human coronavirus NL63, UniProt P0C6X5); assay: HCoV-NL63 Mpro enzymatic inhibition assay (fluorescence); format: biochemical
Chain of HCoV-NL63 Mpro (P0C6X5 2940-3242 limits assumed): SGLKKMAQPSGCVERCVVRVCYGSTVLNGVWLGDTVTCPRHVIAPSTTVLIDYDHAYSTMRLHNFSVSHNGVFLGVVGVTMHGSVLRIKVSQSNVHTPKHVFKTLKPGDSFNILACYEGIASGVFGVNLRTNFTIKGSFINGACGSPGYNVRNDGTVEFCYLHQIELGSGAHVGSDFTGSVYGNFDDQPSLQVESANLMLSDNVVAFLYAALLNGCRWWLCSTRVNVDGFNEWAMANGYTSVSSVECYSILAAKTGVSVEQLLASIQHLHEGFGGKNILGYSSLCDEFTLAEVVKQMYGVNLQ
How it was run: as §1

HCoV-229E Mpro = HCoV-229E Mpro (Human coronavirus 229E, UniProt P0C6X1); assay: HCoV-229E Mpro enzymatic inhibition assay (fluorescence); format: biochemical
Chain of HCoV-229E Mpro (P0C6X1 2966-3267 limits assumed): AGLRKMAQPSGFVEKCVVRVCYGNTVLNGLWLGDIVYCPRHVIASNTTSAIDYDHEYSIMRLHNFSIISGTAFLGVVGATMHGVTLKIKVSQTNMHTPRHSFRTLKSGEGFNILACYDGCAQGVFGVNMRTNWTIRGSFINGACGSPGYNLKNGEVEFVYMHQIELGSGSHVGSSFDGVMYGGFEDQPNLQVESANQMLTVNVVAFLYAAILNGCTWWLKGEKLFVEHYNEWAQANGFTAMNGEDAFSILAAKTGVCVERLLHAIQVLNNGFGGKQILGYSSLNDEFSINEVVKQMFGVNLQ

HCoV-OC43 Mpro = HCoV-OC43 Mpro (Human coronavirus OC43, UniProt P0C6X6); assay: HCoV-OC43 Mpro enzymatic inhibition assay (fluorescence); format: biochemical
Chain of HCoV-OC43 Mpro (P0C6X6 3247-3549 limits assumed): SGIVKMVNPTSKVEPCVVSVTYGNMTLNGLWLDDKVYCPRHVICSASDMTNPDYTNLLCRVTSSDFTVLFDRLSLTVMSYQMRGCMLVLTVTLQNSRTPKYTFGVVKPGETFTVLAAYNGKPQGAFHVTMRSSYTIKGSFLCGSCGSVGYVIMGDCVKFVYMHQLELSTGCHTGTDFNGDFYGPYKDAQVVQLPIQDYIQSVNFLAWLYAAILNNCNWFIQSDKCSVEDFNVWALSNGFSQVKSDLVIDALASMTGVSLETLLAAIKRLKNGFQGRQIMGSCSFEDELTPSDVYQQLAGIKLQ
How it was run: as §1

Chain of MERS Mpro (K9N7C7 3248-3553 limits assumed): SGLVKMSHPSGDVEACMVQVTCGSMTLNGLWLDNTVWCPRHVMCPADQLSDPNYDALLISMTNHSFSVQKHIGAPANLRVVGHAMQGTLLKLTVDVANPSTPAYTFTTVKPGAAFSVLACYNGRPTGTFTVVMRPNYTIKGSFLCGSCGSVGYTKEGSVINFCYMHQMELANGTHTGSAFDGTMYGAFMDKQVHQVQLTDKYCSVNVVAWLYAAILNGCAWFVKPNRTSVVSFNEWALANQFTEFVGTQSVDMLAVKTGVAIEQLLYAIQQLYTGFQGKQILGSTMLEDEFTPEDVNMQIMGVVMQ

Compound	IC50 (MERS Mpro) [nM]	IC50 (SARS-CoV-1 Mpro) [nM]	IC50 (SARS-CoV-2 Mpro) [nM]	IC50 (HCoV-HKU1 Mpro) [nM]	IC50 (HCoV-NL63 Mpro) [nM]	IC50 (HCoV-229E Mpro) [nM]	IC50 (HCoV-OC43 Mpro) [nM]	IC50 (SARS-CoV-2 Mpro; mean, 25 nM protein, 25 μM substrate, 30 min pre-incubation, 60 min at 30° C., read-out: Mpro_SARS-CoV-2 mean IC50) [nM]
O=C[C@H](C[C@@H]1CCNC1=O)NC(=O)[C@@H]1[C@H]2C[C@H]2CN1C(=O)c1cc2ccccc2[nH]1 [Compound 130, (1S,2S,5R)-3-(1H-Indole-2-carbonyl)-N—((S)-1-oxo-3-((S)-2-oxopyrrolidin-3-yl)propan-2-yl)-3-azabicyclo[3.1.0]hexane-2-carboxamide]	838	832	372	87.4	130	191	398	
CC(C)c1ccc(F)c2[nH]c(C(=O)N3C[C@H]4[C@@H]([C@H]3C(=O)N[C@H](C#N)C[C@@H]3CCNC3=O)C4(C)C)cc12 [Compound 131, (1R,2S,5S)—N—((S)-1-Cyano-2-((S)-2-oxopyrrolidin-3-yl)ethyl)-3-(7-fluoro-4-isopropyl-1H-indole-2-carbonyl)-6,6-dimethyl-3-azabicyclo[3.1.0]hexane-2-carboxamide]	9760	772	401	1140	1590	690	1540	
CC1(C)[C@@H]2[C@@H](C(=O)N[C@H](C#N)C[C@@H]3CCNC3=O)N(C(=O)c3cc4cccc(Cl)c4[nH]3)C[C@@H]21 [Compound 132, (1R,2S,5S)-3-(7-Chloro-1H-indole-2-carbonyl)-N—((S)-1-cyano-2-((S)-2-oxopyrrolidin-3-yl)ethyl)-6,6-dimethyl-3-azabicyclo[3.1.0]hexane-2-carboxamide]	5440	873	434	1910	3970	1210	3010	
CC1(C)[C@@H]2[C@@H](C(=O)N[C@H](C#N)C[C@@H]3CCNC3=O)N(C(=O)C3(c4ccccc4)CC3)C[C@@H]21 [Compound 135, (1R,2S,5S)—N—((S)-1-Cyano-2-((S)-2-oxopyrrolidin-3-yl)ethyl)-6,6-dimethyl-3-(1-phenylcyclopropanecarbonyl)-3-azabicyclo[3.1.0]hexane-2-carboxamide]	4540	571	468	766	11800	3460	1870	
CC1(C)[C@@H]2[C@@H](C(=O)N[C@H](C#N)C[C@@H]3CCNC3=O)N(C(=O)C3(c4ccccc4)CCCC3)C[C@@H]21 [Compound 136, (1R,2S,5S)—N—((S)-1-Cyano-2-((S)-2-oxopyrrolidin-3-yl)ethyl)-6,6-dimethyl-3-(1-phenylcyclopentanecarbonyl)-3-azabicyclo[3.1.0]hexane-2-carboxamide]	8410	767	470	1630	13900	3050	3980	
O=C[C@H](C[C@@H]1CCNC1=O)NC(=O)[C@@H]1C[C@@H](Cc2cccc(Cl)c2)CN1C(=O)c1cc2ccccc2[nH]1 [Compound 137, (2S,4R)-4-(3-Chlorobenzyl)-1-(1H-indole-2-carbonyl)-N—((S)-1-oxo-3-((S)-2-oxopyrrolidin-3-yl)propan-2-yl)pyrrolidine-2-carboxamide]	36300	1520	478	262	6560	1260	1420	
O=C[C@H](C[C@@H]1CCNC1=O)NC(=O)[C@@H]1CCCN1C(=O)c1cc2ccccc2[nH]1 [Compound 138]	1730	691		227	417	208	317	499
